Laboratory results from article PMC5853558, “De novo identification of lipid II binding lipopeptides with antibacterial activity against vancomycin-resistant bacteria” (Chemical Science, 2017).
Converted amounts (≈) assume the structure as drawn. *1 amine or outer side, *2 acyl side, *3 side chain or, on linkers, in order; H or OH if unused. Where a SMILES comes first, the peptide text is derived from it. Bridges are numbered along the chain shown (N, C = ends). [ ]: non-standard residue; d: D form. The star is where a group is joined. TBMB = c1c(C[*:1])cc(C[*:3])cc1C[*:2]; NHDecyl = CCCCCCCCCCN*

Experiments:
B. subtilis (168) = experiment: microbe, parasite or virus in culture; type: cell-based
In short: (§1)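 Dilution series of peptide in TSB, up to 512 µg/ml final (lipopeptides up to 64 µg/ml), DMSO 2% final. Mid-log inoculum suspension at 1 x 10^6 CFU/ml, equal volume per well. Incubation at the strain's growth temperature with shaking.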

S. epidermidis (1587) = experiment: microbe, parasite or virus in culture; type: cell-based
In short: as §1

S. pyogenes (5448) = experiment: microbe, parasite or virus in culture; type: cell-based
In short: as §1

E. faecium (E980) = experiment: microbe, parasite or virus in culture; type: cell-based, Enterococcus faecium
In short: as §1

E. faecium (VRE0321) = experiment: microbe, parasite or virus in culture; type: cell-based, Enterococcus faecium
In short: as §1

E. faecium (VRE155) = experiment: microbe, parasite or virus in culture; type: cell-based, Enterococcus faecium
In short: as §1

E. faecium (VRE2297) = experiment: microbe, parasite or virus in culture; type: cell-based, Enterococcus faecium
In short: as §1

E. faecium (VRE7391) = experiment: microbe, parasite or virus in culture; type: cell-based, Enterococcus faecium
In short: as §1

E. faecium E980 = experiment: UDP-MurNAc-pentapeptide accumulation assay; type: cell-based, Enterococcus faecium; settings: E. faecium E980, peptides at 10x MIC, 30 min, chloramphenicol 130 µg/ml pre-treatment, LCMS; triplicate measurements
Description: We next examined the effect of the optimized P8-D-(S6R, R15A)-C10 lipopeptide on cell wall biosynthesis in live bacteria. Specifically, we employed an assay where the accumulation of the soluble intracellular lipid II precursor UDP-MurNAc-pentapeptide is measured in response to antibiotic administration. Antibiotics known to interfere with cell wall biosynthesis by sequestration of lipid II (i.e. vancomycin) can lead to UDP-MurNAc-pentapeptide accumulation in the cytosol which can then be extracted and assessed by chromatographic means.[18],[33] […] The effect of the lipopeptides on bacterial cell morphology was further investigated using scanning electron microscopy. To this end, VRE 155 cells were imaged after exposure to either P8-D-(S6R, R15A)-C10 or nisin at 2× the MIC.
Section 4 Biological and biochemical experiments
4.1 Minimum inhibitory concentration assay
MIC values were determined by using the broth microdilution method. […]
determining the MICs of the lipidated peptides, the lipopeptides were first dissolved in DMSO and diluted with TSB so that the peptide concentration was 128 µg/ml and the DMSO concentration was 4%. After inoculation the highest peptide concentration evaluated was 64 µg/ml and the DMSO concentration was 2%. […]
Hemolysis was determined by measuring the absorption at 414 nm to measure the amount of free […]

[1] = Supplemental table S9, MIC values of Table 2 expressed in µM
[2] = Table 2, broth microdilution in TSB, 16 h, read visually, highest tested 64 µg/ml
[3] = Supplemental table S9, vancomycin-resistant isolate, MIC values of Table 2 expressed in µM
[4] = Table 2, vancomycin-resistant isolate from hospitalized patients, broth microdilution in TSB, 16 h, highest tested 64 µg/ml

Structure (SMILES) | MIC B. subtilis (168) (B. subtilis (168); [1]) [µM] | MIC B. subtilis (168) (B. subtilis (168); [2]) [μg mL^–1] | MIC S. epidermidis (1587) (S. epidermidis (1587); [1]) [µM] | MIC S. epidermidis (1587) (S. epidermidis (1587); [2]) [μg mL^–1] | MIC S. pyogenes (5448) (S. pyogenes (5448); [2]) | MIC E. faecium (E980) (E. faecium (E980); [1]) [µM] | MIC E. faecium (E980) (E. faecium (E980); [2]) [μg mL^–1] | MIC E. faecium (VRE0321) (E. faecium (VRE0321); [3]) [µM] | MIC E. faecium (VRE0321) (E. faecium (VRE0321); [4]) [μg mL^–1] | MIC E. faecium (VRE155) (E. faecium (VRE155); [3]) [µM] | MIC E. faecium (VRE155) (E. faecium (VRE155); [4]) [μg mL^–1] | MIC E. faecium (VRE2297) (E. faecium (VRE2297); [3]) [µM] | MIC E. faecium (VRE2297) (E. faecium (VRE2297); [4]) [μg mL^–1] | MIC E. faecium (VRE7391) (E. faecium (VRE7391); [3]) [µM] | MIC E. faecium (VRE7391) (E. faecium (VRE7391); [4]) [μg mL^–1] | Accumulation of UDP-MurNAc-pentapeptide (E. faecium E980) | MIC S. pyogenes (5448) (S. pyogenes (5448); [1]) [µM]
CCCCCCCCCCNC(=O)CNC(=O)[C@H]1CSCc2cc3cc(c2)CSC[C@@H](NC(=O)[C@@H](CC(C)C)NC(=O)[C@@H](CC(C)C)NC(=O)[C@@H](CCCNC(=N)N)NC(=O)[C@@H](CCC(N)=O)NC(=O)[C@@H](CC(C)C)NC(=O)[C@@H](CC(C)C)NC(=O)[C@H](NC(=O)[C@@H](C)N)CSC3)C(=O)N2CCC[C@@H]2C(=O)N[C@H](Cc2ccc(O)cc2)C(=O)N[C@H](CO)C(=O)N[C@H]([C@H](C)O)C(=O)N[C@H](Cc2c[nH]cn2)C(=O)N[C@H](C)C(=O)N1 [P8-D-(S6R, R15A)-C10] (H-[dA][dC][dL][dL][dQ][dR][dL][dL][dC][dP][dY][dS][dT][dH][dA][dC]G-NHDecyl; linker 2-9-16 via TBMB; N-terminus assumed) | 7.6 (≈ 16 µg/mL) | 8 | 60.9 (≈ 128 µg/mL) | 64 | 8–16 μg mL^–1 | 30.5 (≈ 64.1 µg/mL) | 32 | 7.6 (≈ 16 µg/mL) | 8 | 7.6 (≈ 16 µg/mL) | 8 | 15.2 (≈ 32 µg/mL) | 16 | 15.2 (≈ 32 µg/mL) | 16 | significant accumulation | 
CCCCCCCCCCNC(=O)CNC(=O)[C@@H]1CSCc2cc3cc(c2)CSC[C@H](NC(=O)[C@H](CC(C)C)NC(=O)[C@H](CC(C)C)NC(=O)[C@H](CCCNC(=N)N)NC(=O)[C@H](CCC(N)=O)NC(=O)[C@H](CC(C)C)NC(=O)[C@H](CC(C)C)NC(=O)[C@@H](NC(=O)[C@H](C)N)CSC3)C(=O)N2CCC[C@H]2C(=O)N[C@@H](Cc2ccc(O)cc2)C(=O)N[C@@H](CO)C(=O)N[C@@H]([C@@H](C)O)C(=O)N[C@@H](Cc2c[nH]cn2)C(=O)N[C@@H](C)C(=O)N1 [P8-L-(S6R, R15A)-C10] (H-ACLLQRLLCPYSTHACG-NHDecyl; linker 2-9-16 via TBMB; N-terminus assumed) | 7.6 (≈ 16 µg/mL) | 8 | 30.5 (≈ 64.1 µg/mL) | 32 | 8 μg mL^–1 | 30.5 (≈ 64.1 µg/mL) | 32 | 7.6 (≈ 16 µg/mL) | 8 | 7.6 (≈ 16 µg/mL) | 8 | 15.2 (≈ 32 µg/mL) | 16 | 15.2 (≈ 32 µg/mL) | 16 | significant accumulation | 7.6 (≈ 16 µg/mL)
